Results on 16 molecules are retold here after patent US8993575B2, “[1,3,4] oxadiazole derivative and application thereof” (Huazhong University of Science & Technology, priority 2011, dated 2015).

pIC50: −log10 of the molar value. Read-outs that look alike come from different tables or passages of the source.

The target of one data set is 5HT1A receptor (Rattus norvegicus (Rat), UniProt P19327). Description: 5HT1A receptor binding assay (3H-8-OH-DPAT, rat brain mantle membrane). The conditions noted are these: for inhibition at 10 µM: test compound final concentration 10^-5 M; for pIC50: values marked a = IC50. Here is the method:
Incubation at 37° C. was conducted for 10 min, the weight of the tubes were adjusted using a balance after incubation. […] Centrifugation was conducted and repeated 3 times.

The target of another data set is D2 receptor (Rattus norvegicus (Rat), UniProt P61169). In words: D2 receptor binding assay (3H-Spiperone, rat brain striatum membrane). As to conditions: read-out: D2 Inhibition %.
Another data set has as its target 5HT2A receptor (Rattus norvegicus (Rat), UniProt P14842). In words: 5HT2A receptor assay ([3H]-Ketanserin, rat brain mantle membrane). Format: binding. As to conditions: for inhibition at 10 µM: read-out: 5HT2A Inhibition %; for pIC50: values marked a = IC50.
In the next data set the target is 5HT2C (Rattus norvegicus (Rat), UniProt P08909). Description: 5HT2C receptor binding assay ([3H]-mesulergine, rat brain mantle membrane). As to conditions: test compound final concentration 10^-5 M. Here is the method:
Incubation at 37° C. was conducted for 10 min, the weight of the tubes were adjusted using a balance after the incubation. […] Centrifugation was conducted (repeated 3 times).

The target of another data set is D3 receptor (Homo sapiens (Human), UniProt P35462). Description: D3 receptor binding assay ([3H]-Spiperone, HEK-293 cells). As to conditions: test compound final concentration 10 μmol/L. The method, then:
After the cells were centrifuged at 1000 rpm for 5 min, the supernatant was discarded, and the cell pellet was collected and stored in a −20° C. fridge for reservation. It was re-suspended with Tris-Cl (pH 7.4) in the assay.
Tris was divided into aliquots by Genetimes Technology Inc.
Competitive binding test for receptors: 20 μl of each of the test compounds and 20 μl of the radioactive ligand together with 160 μl of the receptor proteins were added into the reaction tubes, and the final concentrations of the test compound and the positive drug were all 10 μmol/L. After 50 min of incubation in 30° C. water bath, the tubes were immediately moved to ice bath to terminate the reactions. GF/C glass fiber filter papers were used for rapid sucking filtration on a Millipore cell sample collector, elution buffer (50 mM Tris-HCl, PH 7.4) was applied for 3 ml×3 times, and microwave was applied for 4-5 min for drying. The filter papers were moved into 0.5 ml centrifuge tubes, and 500 μl of lipid-soluble scintillation solution was added. The tubes were allowed to stand still for over 30 min in dark, and the intensities of radioactivity were measured by a counter.

The subject of data set [1] is apomorphine induced clambering of mice. Description: Apomorphine induced clambering assay of mice. The conditions noted are these: for ED50: Mus musculus, po, read-out: apomorphine induced clambering ED50; for improvement of apomorphine induced clambering symptoms (in words): compared to the model group.
Description: Apomorphine provided by Sigma Company was dissolved in 0.9% NaCl (containing 0.1% vitamin C) before use, and was freshly formulated before use.
Instruments: self-made clambering cage, chronograph.
After 5 min of adaptation, the behaviors of the mice at 10-11, 20-21, 30-31 min after the injection of apomorphine were observed.
Another data set has as its system KM mice (catalepsy). In words: Catalepsy assay in mice. In kind it is in vivo. The conditions noted are these: for catalepsy/MK-801 / catalepsy/apomorphine: ratio of ED50 values. Here is the method:
(§1) The durations for the mice to maintain the posture with the two forepaws on the bars were recorded, and 30 s of spasticity without moving was considered as the positive response. In the case the forepaws of the mice were not put down persistently, the observation was terminated at 60 s. The numbers of animals with positive response in each of the compound dosage groups were counted.

The next data set is described as follows: Catalepsy assay in mice. Format: in vivo. As to conditions: both sexes, Kunming (KM), mouse, in vivo; po, mice. Here is the method:
as §1

A further data set in a line: in vivo. As to conditions: both sexes, mouse, in vivo, po. Here is the method:
KM mice (half male and half female) were randomly divided into several groups (with 2-5 mice in each group), which were respectively the 2000 mg/kg groups for each compound, and the solvent group. 0.2 ml/10 g were administered intragastrically. The death of the animals in 3 days were observed. (In the case 3 or more animals survived in 3 days without notable abnormity in their life states, the observation was continued until the assay was completed in 7 days. In the case 3 or more animals died in 3 days, the median lethal dose method was used to determine the LD50).
KM mice (half male and half female) were randomly divided into several groups (with 4 mice in each group), which were respectively the 1500 mg/kg, 1000 mg/kg, 500 mg/kg groups for each compound, and the solvent group. 0.2 ml/10 g were administered intragastrically, and the death of the animals in 1-3 days were observed.

Data set [2] has as its system MK-801 high activity mice. In words: MK-801 induced high activity in mice. In kind it is in vivo. The conditions noted are these: for Total moving distance: MK-801 high activity mice, within 90 min; for ED50: Mus musculus, po, mice, read-out: MK-801 induced high activity ED50; for improvement of MK-801 induced high activity (in words): compared to the model group. The method, then: Ascorbic acid was provided by Sinopharm Chemical Reagent Co. Ltd.
MK-801 was produced by Sigma Company, USA; the formulation method: 0.1% vitamin C was used to formulate a 1 mg/ml solution.
Tween 80, with the concentration of 10%.
Mice with qualified body weight were selected, and randomly divided into blank group, model group, positive control group (risperidone group) and drug group. […] 1 H after the administration, 0.1% of ascorbic acid was intraperitoneally injected to the blank group at 0.1 ml/10 g; and the model group, the positive control group (30 min) and the drug group were intraperitoneally injected the MK-801 solution at 0.1 mg/kg. Subsequently, the spontaneous activities of the mice of each group in 90 min were measured.

The test system of data set [3] is four receptors (D2, D3, 5-HT1A and 5-HT2A). Description: In vitro receptor binding assays, summary over four receptors. The conditions noted are these: in vitro assay.
Where [4] appears, read: single intragastric administration in mice, read-out: LD50.

Sequence of 5HT2C (P08909 33-460 limits assumed): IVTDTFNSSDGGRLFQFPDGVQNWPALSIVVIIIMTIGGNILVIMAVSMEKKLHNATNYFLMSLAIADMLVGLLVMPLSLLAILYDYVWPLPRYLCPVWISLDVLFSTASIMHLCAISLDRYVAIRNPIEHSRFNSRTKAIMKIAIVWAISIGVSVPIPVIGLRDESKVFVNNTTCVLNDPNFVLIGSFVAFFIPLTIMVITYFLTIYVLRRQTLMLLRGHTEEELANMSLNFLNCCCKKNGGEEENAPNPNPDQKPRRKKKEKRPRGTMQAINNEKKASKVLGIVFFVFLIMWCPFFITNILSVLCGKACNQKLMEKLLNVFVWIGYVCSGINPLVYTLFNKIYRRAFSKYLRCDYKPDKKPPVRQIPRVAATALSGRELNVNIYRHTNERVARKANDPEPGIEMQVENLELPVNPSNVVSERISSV
Sequence of 5HT2A receptor (P14842 whole entry): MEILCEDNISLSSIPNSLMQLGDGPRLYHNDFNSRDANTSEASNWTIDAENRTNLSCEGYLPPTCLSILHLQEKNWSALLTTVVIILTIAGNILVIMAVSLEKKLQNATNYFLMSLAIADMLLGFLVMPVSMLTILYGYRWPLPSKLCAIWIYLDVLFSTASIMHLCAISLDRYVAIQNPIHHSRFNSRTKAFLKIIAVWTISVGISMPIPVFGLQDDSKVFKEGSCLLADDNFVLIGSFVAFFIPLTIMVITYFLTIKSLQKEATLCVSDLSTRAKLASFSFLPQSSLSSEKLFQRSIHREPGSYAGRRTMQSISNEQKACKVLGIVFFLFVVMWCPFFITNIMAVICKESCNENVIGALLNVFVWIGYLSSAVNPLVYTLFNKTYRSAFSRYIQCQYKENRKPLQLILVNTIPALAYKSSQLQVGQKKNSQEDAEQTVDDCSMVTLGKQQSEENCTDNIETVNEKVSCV
Sequence of D3 receptor (P35462 whole entry): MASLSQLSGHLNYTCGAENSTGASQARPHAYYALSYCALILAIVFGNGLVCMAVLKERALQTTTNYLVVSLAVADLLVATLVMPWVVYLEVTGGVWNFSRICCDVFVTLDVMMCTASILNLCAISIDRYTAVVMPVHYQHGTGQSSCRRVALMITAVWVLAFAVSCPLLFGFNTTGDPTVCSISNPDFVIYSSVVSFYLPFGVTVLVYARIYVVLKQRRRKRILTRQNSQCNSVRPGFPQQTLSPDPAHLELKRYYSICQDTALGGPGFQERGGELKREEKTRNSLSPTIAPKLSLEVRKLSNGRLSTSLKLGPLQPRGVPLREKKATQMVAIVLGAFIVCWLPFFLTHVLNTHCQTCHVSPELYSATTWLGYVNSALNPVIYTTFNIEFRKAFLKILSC
Sequence of D2 receptor (P61169 whole entry): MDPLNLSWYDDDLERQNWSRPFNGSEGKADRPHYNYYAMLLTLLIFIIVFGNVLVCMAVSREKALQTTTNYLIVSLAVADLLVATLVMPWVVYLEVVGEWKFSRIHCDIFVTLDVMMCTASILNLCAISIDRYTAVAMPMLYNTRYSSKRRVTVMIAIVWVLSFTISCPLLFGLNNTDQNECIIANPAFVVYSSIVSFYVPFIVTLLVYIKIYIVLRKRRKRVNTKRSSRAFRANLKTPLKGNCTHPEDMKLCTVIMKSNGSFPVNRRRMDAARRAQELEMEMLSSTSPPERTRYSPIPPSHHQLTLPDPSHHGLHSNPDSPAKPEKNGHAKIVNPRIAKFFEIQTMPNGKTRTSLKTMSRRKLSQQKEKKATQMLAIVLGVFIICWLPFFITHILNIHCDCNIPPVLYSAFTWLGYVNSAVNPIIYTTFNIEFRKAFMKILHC
Sequence of 5HT1A receptor (P19327 whole entry): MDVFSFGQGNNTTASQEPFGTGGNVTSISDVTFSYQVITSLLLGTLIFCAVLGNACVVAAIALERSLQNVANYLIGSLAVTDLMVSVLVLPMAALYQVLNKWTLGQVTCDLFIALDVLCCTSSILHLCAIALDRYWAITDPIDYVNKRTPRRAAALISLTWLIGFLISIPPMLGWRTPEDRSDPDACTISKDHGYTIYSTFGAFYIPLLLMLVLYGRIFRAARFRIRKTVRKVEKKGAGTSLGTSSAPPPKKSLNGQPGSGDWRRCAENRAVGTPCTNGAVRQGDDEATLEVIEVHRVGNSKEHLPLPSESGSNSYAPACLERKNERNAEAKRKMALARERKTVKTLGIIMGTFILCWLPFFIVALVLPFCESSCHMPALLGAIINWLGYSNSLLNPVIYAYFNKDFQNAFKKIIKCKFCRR
Description for D2 receptor: Brain striatum was rapidly taken, and 2 brain striatums were combined into a centrifuge tube, to which 3 ml of buffer (0.05 M Tris-HCl buffer, containing NaCl 120 mM, KCl 5 mM, MgCl2 1 mM, CaCl2 1 mM) was added, homogenization was conducted for 3-4 s at level 4 for four times, and then 5 ml of buffer was then added. The weight of the homogenized tubes were adjusted using a balance, and centrifugation was conducted at 12000 r, 4° C. for 20 min. The supernatant was discarded, and 3 ml of buffer was added (0.05 M Tris-HCl buffer, containing NaCl 120 mM, KCl 5 mM, MgCl2 1 mM, CaCl2 1 mM). Vortex mixer was used for blending, and then 5 ml of buffer was added (0.05 M Tris-HCl buffer, containing NaCl 120 mM, KCl 5 mM, MgCl2 1 mM, CaCl2 1 mM). Centrifugation was conducted and repeated 3 times. After the centrifugations, the supernatant was discarded, and the pellets were stored at −80° C. for future use.
Beckman LS-6500 Multi-function Liquid Scintillation Counter was used.
(1) The prepared membrane was first applied with appropriate amount of buffer (0.05 M Tris-HCl buffer, containing NaCl 120 mM, KCl 5 mM, MgCl2 1 mM, CaCl2 1 mM), and homogenizer was used for evenly dispersing. 15 tubes were mixed into a 100 ml container, and appropriate amount of homogenized liquid was added to give 50 ml of membrane suspension, which was reserved for future use.
(2) 100 μL of membrane preparation and 100 μL of buffer (0.05 M Tris-HCl buffer, containing NaCl 120 mM, KCl 5 mM, MgCl2 1 mM, CaCl2 1 mM) were added into each reaction tube.
(3) 100 μL of homogenized liquid was added into the total binding tube (TB), 100 μL of Butaclamol (final concentration 10^−5 M) was added into the non-specific binding tube (NB), and 100 μL of the test compound (final concentration 10^−5 M) was added into the specific binding tube (SB) for each compound.
(5) Each of the reaction tubes was incubated at 37° C. for 20 min. After the reaction was completed, the bound ligands were rapidly filtered under reduced pressure, and the ice-chilled assay buffer was used for adequate washing. The filter was taken out and put into a 3 ml scintillation vial, and 2 ml of toluene scintillation solution was added and blended.
(6) The scintillation vials were put into Liquid Scintillation Counter for counting. Inhibitory rate(1%)=[(Total binding tube cpm−compound cpm)/(Total binding tube cpm−non-specific binding tube cpm)]×100%
Each assay for the compounds was conducted in duplicate.

What is called inhibition is the change of the read-out against control, counted positive when it falls. On to `Fc1ccc2c(C3CCN(CCCSc4nnc(-c5ccncc5)o4)CC3)noc2c1` [Compound 16], for which the inhibition at 10 µM at 5HT1A receptor was found to be 86.7%; at D2 receptor, 45.9%; at 5HT2A receptor, 107%.

As a reminder, the ED50 is the dose at which the effect has come halfway, by size or by number of responders. As usually defined, the LD50 is the dose at which mortality reaches 50%. One may read the pIC50 as the IC50 on a negative log10 scale, so that one unit is a factor of ten. Regarding `COc1ccc(-c2nnc(SCCCN3CCC(c4noc5cc(F)ccc45)CC3)o2)cc1` [Compound 4], the inhibition at 10 µM was 82.1% on 5HT2C, 101% on D3 receptor and 113% at D2 receptor. For the same molecule, the ED50 in data set [1] amounted to 1.62 mg/kg; in “Catalepsy assay in mice” it was 640 mg/kg; in data set [2] it was 15.4 mg/kg. Further, in [1], the “improvement of apomorphine induced clambering symptoms (in words)” value is “effectively improve”. The “EPS at effective dosage (in words)” value in the data set with KM mice (catalepsy) was “did not cause EPS”. For the same molecule, in the data set with KM mice (catalepsy), the catalepsy/MK-801 is 41.56. Also, in the data set on KM mice (catalepsy), the catalepsy/apomorphine was 395.30. Moreover, the median lethal dose (LD50) in “in vivo” (setting [4]) was over 2000 mg/kg. Moreover, the Total moving distance in data set [2] (3 mg/kg intragastric) is recorded as 24988.83 ± 7617.21 cm; in data set [2] (5 mg/kg intragastric), 22872.82 ± 10538.51 cm; in data set [2] (10 mg/kg intragastric), 13574.51 ± 5340.38 cm; in [2] (30 mg/kg intragastric), 7773.56 ± 3681.67 cm; in data set [2] (100 mg/kg intragastric) it was 6954.61 ± 4931.26 cm. In addition, the “improvement of MK-801 induced high activity (in words)” value in data set [2] is given as “significantly improve”. In addition, the negative-log IC50 (pIC50) was 7.90 on 5HT1A receptor and 9.29 on 5HT2A receptor.

For `Fc1ccc2c(C3CCN(CCCSc4nnc(-c5ccccc5)o4)CC3)noc2c1` [Compound 2], the inhibition at 10 µM turned out to be 6.1% on 5HT1A receptor, 77.5% at D2 receptor and 11% on 5HT2A receptor.

Turning to `FC(F)(F)c1ccc(-c2nnc(SCCCN3CCN(c4nsc5ccccc45)CC3)o2)cc1` [Compound 7, 2-((3-(4-(3-benzisothiazole)-1-piperazinyl)propylthio)-5-(4-trifluoromethyl)phenyl)-1,3,4-oxadiazole], the inhibition at 10 µM stood at 113% on 5HT1A receptor, 80.6% on D2 receptor and 98.8% on 5HT2A receptor.

Take `Fc1ccc2c(C3CCN(CCCSc4nnc(-c5ccc(Cl)cc5)o4)CC3)noc2c1` [Compound 6]: the results for the inhibition at 10 µM on 5HT2C, at D3 receptor and at D2 receptor were 68.1%, 101% and 104%, respectively. Also, the ED50 in data set [1] stood at 4.1 mg/kg; in “Catalepsy assay in mice”, 92.7 mg/kg; in data set [2] it was 3.31 mg/kg. Besides, the “improvement of apomorphine induced clambering symptoms (in words)” value in data set [1] is given as “effectively improve”. Also, the “EPS at effective dosage (in words)” value with KM mice (catalepsy) was “did not cause EPS”. In addition, in the data set on KM mice (catalepsy), the catalepsy/MK-801 worked out at 28.02. The catalepsy/apomorphine in the data set on KM mice (catalepsy) is given as 22.62. For the same molecule, in the data set “in vivo” (setting [4]), the LD50 is over 2000 mg/kg. The Total moving distance was determined as 20912.66 ± 9887.01 cm in data set [2] (3 mg/kg intragastric); 15745.74 ± 5475.41 cm in [2] (5 mg/kg intragastric); 12997.51 ± 7859.06 cm in data set [2] (10 mg/kg intragastric); 6741.35 ± 2251.52 cm in data set [2] (20 mg/kg intragastric); 8454.72 ± 7864.50 cm in data set [2] (30 mg/kg intragastric). Moreover, the “improvement of MK-801 induced high activity (in words)” value in data set [2] is recorded as “significantly improve”. Moreover, the negative logarithm of the IC50 (pIC50) was 7.70 on 5HT1A receptor and 7.82 against 5HT2A receptor.

For `Clc1ccc(-c2nnc(SCCCN3CCN(c4nsc5ccccc45)CC3)o2)cc1` [Compound 5], the inhibition at 10 µM on 5HT2C was 56.5%; at D3 receptor, 98.7%; on D2 receptor, 92.7%. Also, the pIC50 at 5HT1A receptor was 7.57; at 5HT2A receptor it was 7.20.

`Fc1ccc(-c2nnc(SCCCN3CCN(c4nsc5ccccc45)CC3)o2)cc1` [Compound 9, 2-((3-(4-(3-benzisothiazole)-1-piperazinyl)propylthio)-5-(4-fluoro)phenyl)-1,3,4-oxadiazole]: the inhibition at 10 µM at 5HT1A receptor was determined as 107%; on D2 receptor it was 84.8%; on 5HT2A receptor, 103%.

`c1ccc2c(-c3nnc(SCCCN4CCN(c5nsc6ccccc56)CC4)o3)cccc2c1` [Compound 11]: in [3], the “affinities to D2, D3, 5-HT1A and 5-HT2A receptors (in words)” value is reported as “relatively stronger affinities”. Also, in data set [3], the “affinity compared to aripiprazole (in words)” value is recorded as “equivalent to aripiprazole”. For the same molecule, the inhibition at 10 µM on 5HT1A receptor was found to be 45.8%; at D2 receptor, 25.7%; at 5HT2A receptor it was 91%.

`c1csc(-c2nnc(SCCCN3CCN(c4nsc5ccccc45)CC3)o2)c1` [Compound 13]: the inhibition at 10 µM on 5HT1A receptor came to 95.9%; at D2 receptor it was 47.8%; at 5HT2A receptor it was 101%.

For the molecule `c1ccc2c(N3CCN(CCCSc4nnc(-c5ccncc5)o4)CC3)nsc2c1` [Compound 15], the inhibition at 10 µM at 5HT1A receptor amounted to 114%; on D2 receptor, 88.1%; on 5HT2A receptor, 95.1%.

For the molecule `COc1ccc(-c2nnc(SCCCN3CCN(c4nsc5ccccc45)CC3)o2)cc1` [Compound 3], the results for the inhibition at 10 µM at 5HT2C, on D3 receptor and on D2 receptor were 98.5%, 99.5% and 108%, respectively. The pIC50 was 8.05 at 5HT1A receptor and 8.64 at 5HT2A receptor.

As for `c1ccc(-c2nnc(SCCCN3CCN(c4nsc5ccccc45)CC3)o2)cc1` [Compound 1], the inhibition at 10 µM at 5HT1A receptor stood at 17.9%; on D2 receptor it was 62.4%; on 5HT2A receptor, 87.1%.

As for `O=C1CCc2ccc(OCCCCN3CCN(c4cccc(Cl)c4Cl)CC3)cc2N1` [aripiprazole], the LD50 in the data set “in vivo” (KM) was determined as 1400 mg/kg.

On to `O=C1Cc2cc(CCN3CCN(c4nsc5ccccc45)CC3)c(Cl)cc2N1` [ziprasidone], for which the median lethal dose (LD50) in “in vivo” (setting [4]) amounted to 2000 mg/kg.

`Fc1ccc(-c2nnc(SCCCN3CCC(c4noc5cc(F)ccc45)CC3)o2)cc1` [Compound 10, 2-((3-(4-(3-(6-fluoro-benzisoxazole))-1-piperidyl)propylthio)-5-(4-fluoro)phenyl)-1,3,4-oxadiazole]: the inhibition at 10 µM at 5HT1A receptor came out at 56.4%; at D2 receptor it was 88.6%; at 5HT2A receptor, 117%.

Regarding `Fc1ccc2c(C3CCN(CCCSc4nnc(-c5ccc(C(F)(F)F)cc5)o4)CC3)noc2c1` [Compound 8, 2-((3-(4-(3-(6-fluoro-benzisoxazole))-1-piperidyl)propylthio)-5-(4-trifluoromethyl)phenyl)-1,3,4-oxadiazole], the inhibition at 10 µM at 5HT1A receptor was 20.8%; on D2 receptor, 105%; on 5HT2A receptor it was 101%.
